# Experimental data reported in PubChem BioAssay AID504557 (Johns Hopkins Ion Channel Center, 2011).
# pIC50: −log10 of the molar value. Calls of active or inactive are those of the source.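 Rule for the calls: active = blocks current through the Kir2.1 potassium channel at one or more tested doses and yields a dose response curve; inactive = no block at any dose, or no dose response.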
# Molecular target: Inward rectifier potassium channel 2 (Mus musculus) (UniProt P35561)
# Experiment: mouse Kir2.1 channel inhibitors, SAR follow-up, cell-based, thallium flux, FluxOR (AID 504557)
# Settings: Kir2.1 stable cells, FluxOR thallium flux fluorescence
# Chain of Inward rectifier potassium channel 2 (Mus musculus) (P35561 whole entry, looked up): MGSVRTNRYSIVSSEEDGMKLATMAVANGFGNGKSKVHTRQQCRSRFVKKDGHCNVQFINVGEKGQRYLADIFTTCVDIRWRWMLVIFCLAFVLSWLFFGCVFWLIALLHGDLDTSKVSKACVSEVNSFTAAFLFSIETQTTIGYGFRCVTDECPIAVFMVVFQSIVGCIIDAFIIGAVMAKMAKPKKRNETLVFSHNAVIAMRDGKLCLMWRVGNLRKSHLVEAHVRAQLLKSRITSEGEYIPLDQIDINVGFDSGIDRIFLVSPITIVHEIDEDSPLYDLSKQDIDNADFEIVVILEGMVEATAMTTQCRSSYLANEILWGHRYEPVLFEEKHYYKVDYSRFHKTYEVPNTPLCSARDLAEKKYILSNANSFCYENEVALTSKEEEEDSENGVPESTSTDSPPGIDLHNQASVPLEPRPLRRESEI
row,SMILES,pIC50
1,C[C@H](NS(=O)(=O)c1ccccc1Br)c1ccccc1,4.89
2,C[C@H](NS(=O)(=O)c1cc(Cl)cc(Cl)c1O)c1ccccc1,4.47
3,C[C@@H](NS(=O)(=O)c1ccccc1Br)c1ccccc1,4.88
4,C[C@@H](NS(=O)(=O)c1cccc(Br)c1)c1ccccc1,5.12
5,CC(NS(=O)(=O)c1ccc(Br)cc1)c1ccccc1 (configuration not stated),5.16
6,C[C@@H](NS(=O)(=O)c1ccc(Cl)cc1)c1ccccc1,4.87
7,Cc1noc(C)c1COC(=O)CCN1c2ccccc2Sc2ccccc21,5.12
8,CC(O)CNCCCOc1cccc(Oc2ccccc2)c1 (configuration not stated),6.17
9,C[C@H](NS(=O)(=O)c1ccc(Br)cc1)c1ccccc1,5.15
10,C[C@H](NS(=O)(=O)c1ccc(Cl)cc1)c1ccccc1,4.93

# Further lines, results first:
row,pIC50,SMILES
1,4.87,Cc1ccc2nc(NCc3ccccc3)[nH]c2c1
2,4.82,Cc1ccc(S(=O)(=O)N[C@@H](C)c2ccccc2)cc1
3,5.31,C[C@H](NS(=O)(=O)c1ccccc1)c1ccccc1
4,4.96,C[C@H](NS(=O)(=O)c1cccc(Br)c1)c1ccccc1
5,5.02,Cc1ccc(S(=O)(=O)N[C@H](C)c2ccccc2)cc1
6,4.88,c1ccc(CNc2c3ccccc3nc3ccccc23)cc1
7,5.86,Cc1ccc(C)c(OCCCNCc2ccccc2)c1
8,5.32,C[C@H](NS(C)(=O)=O)c1ccccc1
9,4.86,Cc1ccc2nc(N3CCN(CCO)CC3)nc(-c3ccccc3)c2c1
10,4.93,c1ccc(COc2ccc(OCCCNC3CCCC3)cc2)cc1
11,5.12,Cc1ccc(Nc2cc(C)nc3c(C)cccc23)cc1
12,4.60,C[C@@H](NS(=O)(=O)c1ccc(Br)cc1)c1ccccc1

# Same assay, conditions: Kir2.1 stable cells, FluxOR thallium flux fluorescence; at 71 µM (top of the series)
row,"activity change, negative = inhibition",SMILES
1,inactive,C[C@@H](NS(C)(=O)=O)c1ccccc1
2,inactive,O=C(NCC1CCCCN1)c1cc(OCC(F)(F)F)ccc1OCC(F)(F)F (configuration not stated)
3,inactive,C[C@@H](NS(=O)(=O)c1ccccc1)c1ccccc1
4,inactive,C[C@@H](NS(=O)(=O)c1cc(Cl)cc(Cl)c1O)c1ccccc1
5,inactive,O=S(=O)(c1ccc(F)cc1)N1CCCc2ccccc21
